Assay [1] concerns Beet Armyworm (Spodoptera exigua) ("BAW"), second instar larvae. Briefly: Bioassay on beet armyworm (BAW), 128-well diet tray assay. Format: in vivo. As to conditions: Spodoptera exigua, read-out: BAW (Biological Results, rating). In a few lines: (§1)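 Second-instar larvae on diet in 128-well trays, covered and held at 25° C, 14:10 light-dark, for five to seven days. Percent mortality scored per well and averaged over eight wells; activity reported as a rating category.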

Assay [2] relates to Cabbage Looper (Trichoplusia ni) ("CL"), second instar larvae. Kind of assay: Bioassay on cabbage looper (CL), 128-well diet tray assay. It counts as in vivo. As to conditions: Trichoplusia ni, read-out: CL (Biological Results, rating). In short, it runs like this: as §1

The source of these data is patent US20230077362A1 (CORTEVA AGRISCIENCE LLC, priority 2019, published 2023).

Consider `COc1ccc(C(C)C)c(N2C(=O)CS/C2=N\C(=O)Nc2ccc(-c3ncn(-c4ccc(OC(F)(F)F)cn4)n3)cc2F)c1` [Compound J239, (Z)-1-(2-Fluoro-4-(1-(5-(trifluoromethoxy)pyridin-2-yl)-1H-1,2,4-triazol-3-yl)phenyl)-3-(3-(2-isopropyl-5-methoxyphenyl)-4-oxothiazolidin-2-ylidene)urea], for which the pest or weed control at 50 µg/cm2 in assay [1] and in assay [2] was 50 to 100% in each case.
As to `COC(C)c1ccc(C)cc1N1C(=O)CS/C1=N\C(=O)Nc1ccc(-c2ncn(-c3ccc(OC(F)(F)F)cn3)n2)cc1C` (stereo not shown) [Compound J240, (Z)-1-(3-(2-(1-Methoxyethyl)-5-methylphenyl)-4-oxothiazolidin-2-ylidene)-3-(2-methyl-4-(1-(5-(trifluoromethoxy)pyridin-2-yl)-1H-1,2,4-triazol-3-yl)phenyl)urea], the pest or weed control at 50 µg/cm2 in assay [1] and in assay [2] was 50 to 100% in each case.
As for `Cc1ccc(COCC(F)(F)F)c(N2C(=O)CS/C2=N\C(=O)Nc2ccc(-c3ncn(-c4ccc(OC(F)(F)F)cn4)n3)cc2C)c1` [Compound J241, (Z)-1-(3-(5-Methyl-2-((2,2,2-trifluoroethoxy)methyl)phenyl)-4-oxothiazolidin-2-ylidene)-3-(2-methyl-4-(1-(5-(trifluoromethoxy)pyridin-2-yl)-1H-1,2,4-triazol-3-yl)phenyl)urea], the pest or weed control at 50 µg/cm2 in assay [1] and in assay [2] was 50 to 100% throughout.
Regarding `CC(C)c1ccc(N(C)C)cc1N1C(=O)CS/C1=N\C(=O)Nc1ccc(-c2ncn(-c3ccc(OC(F)(F)F)cc3)n2)cc1C#N` [Compound J242, (Z)-1-(2-Cyano-4-(1-(4-(trifluoromethoxy)phenyl)-1H-1,2,4-triazol-3-yl)phenyl)-3-(3-(5-(dimethylamino)-2-isopropylphenyl)-4-oxothiazolidin-2-ylidene)urea], the pest or weed control at 50 µg/cm2 in assay [1] and in assay [2] was 50 to 100% in each case.
Take `Cc1ccc(OCCC(F)(F)F)c(N2C(=O)CS/C2=N\C(=O)Nc2ccc(-c3ncn(-c4ccc(OC(F)(F)F)cc4)n3)cc2C#N)c1` [Compound J243, (Z)-1-(2-Cyano-4-(1-(4-(trifluoromethoxy)phenyl)-1H-1,2,4-triazol-3-yl)phenyl)-3-(3-(5-methyl-2-(3,3,3-trifluoropropoxy)phenyl)-4-oxothiazolidin-2-ylidene)urea]: the pest or weed control at 50 µg/cm2 in assay [1] and in assay [2] was 50 to 100% throughout.
For `Cc1ccc(C(F)(F)F)c(N2C(=O)CS/C2=N\C(=O)Nc2ccc(-c3ncn(-c4ccc(OC(F)(F)F)cc4)n3)cc2C#N)c1` [Compound J244, (Z)-1-(2-Cyano-4-(1-(4-(trifluoromethoxy)phenyl)-1H-1,2,4-triazol-3-yl)phenyl)-3-(3-(5-methyl-2-(trifluoromethyl)phenyl)-4-oxothiazolidin-2-ylidene)urea], the pest or weed control at 50 µg/cm2 in assay [1] and in assay [2] was 50 to 100% each time.
With `Cc1ccc(COCC(F)(F)F)c(N2C(=O)CS/C2=N\C(=O)Nc2ccc(-c3ncn(-c4ccc(OC(F)(F)F)cc4)n3)cc2C#N)c1` [Compound J245, (Z)-1-(2-Cyano-4-(1-(4-(trifluoromethoxy)phenyl)-1H-1,2,4-triazol-3-yl)phenyl)-3-(3-(5-methyl-2-((2,2,2-trifluoroethoxy)methyl)phenyl)-4-oxothiazolidin-2-ylidene)urea], the pest or weed control at 50 µg/cm2 in assay [1] and in assay [2] was 50 to 100% in each case.
Turning to `COc1ccc(C(C)C)c(N2C(=O)CS/C2=N\C(=O)Nc2ccc(-c3ncn(-c4ccc(OC(F)(F)F)cc4)n3)cc2C#N)c1` [Compound J246, (Z)-1-(2-Cyano-4-(1-(4-(trifluoromethoxy)phenyl)-1H-1,2,4-triazol-3-yl)phenyl)-3-(3-(2-isopropyl-5-methoxyphenyl)-4-oxothiazolidin-2-ylidene)urea], the pest or weed control at 50 µg/cm2 in assay [1] and in assay [2] was 50 to 100% in each case.
Turning to `CCCc1ccc(N(C)C)cc1N1C(=O)CS/C1=N\C(=O)Nc1ccc(-c2ncn(-c3ccc(OC(F)(F)F)cc3)n2)cc1C#N` [Compound J247, (Z)-1-(2-Cyano-4-(1-(4-(trifluoromethoxy)phenyl)-1H-1,2,4-triazol-3-yl)phenyl)-3-(3-(5-(dimethylamino)-2-propylphenyl)-4-oxothiazolidin-2-ylidene)urea], the pest or weed control at 50 µg/cm2 in assay [1] and in assay [2] was 50 to 100% each time.
As to `CCCc1ccc(C)cc1N1C(=O)CS/C1=N\C(=O)Nc1ccc(-c2ncn(-c3ccc(OC(F)(F)F)cc3)n2)cc1C#N` [Compound J248, (Z)-1-(2-Cyano-4-(1-(4-(trifluoromethoxy)phenyl)-1H-1,2,4-triazol-3-yl)phenyl)-3-(3-(5-methyl-2-propylphenyl)-4-oxothiazolidin-2-ylidene)urea], the pest or weed control at 50 µg/cm2 in assay [1] and in assay [2] was 50 to 100% throughout.
Turning to `Cc1ccc(COCC(F)(F)F)c(N2C(=O)CS/C2=N\C(=O)Nc2ccc(-c3ncn(-c4ccc(OC(F)(F)F)cn4)n3)cc2Cl)c1` [Compound J249, (Z)-1-(2-Chloro-4-(1-(5-(trifluoromethoxy)pyridin-2-yl)-1H-1,2,4-triazol-3-yl)phenyl)-3-(3-(5-methyl-2-((2,2,2-trifluoroethoxy)methyl)phenyl)-4-oxothiazolidin-2-ylidene)urea], the pest or weed control at 50 µg/cm2 in assay [1] and in assay [2] was 50 to 100% in each case.
Take `COC(C)c1ccc(C)cc1N1C(=O)CS/C1=N\C(=O)Nc1ccc(-c2ncn(-c3ccc(OC(F)(F)F)cn3)n2)cc1Cl` (stereo not shown) [Compound J250, (Z)-1-(2-Chloro-4-(1-(5-(trifluoromethoxy)pyridin-2-yl)-1H-1,2,4-triazol-3-yl)phenyl)-3-(3-(2-(1-methoxyethyl)-5-methylphenyl)-4-oxothiazolidin-2-ylidene)urea]: the pest or weed control at 50 µg/cm2 in assay [1] and in assay [2] was 50 to 100% throughout.
With `Cc1cc(-c2ncn(-c3ccc(OC(F)(F)F)cn3)n2)ccc1NC(=O)/N=C1\SCC(=O)N1c1cc(N(C)C)ccc1C(C)C` [Compound J251, (Z)-1-(3-(5-(Dimethylamino)-2-isopropylphenyl)-4-oxothiazolidin-2-ylidene)-3-(2-methyl-4-(1-(5-(trifluoromethoxy)pyridin-2-yl)-1H-1,2,4-triazol-3-yl)phenyl)urea], the pest or weed control at 50 µg/cm2 in assay [1] and in assay [2] was 50 to 100% throughout.
As to `COc1ccc(C(C)C)c(N2C(=O)CS/C2=N\C(=O)Nc2ccc(-c3ncn(-c4ccc(OC(F)(F)F)cn4)n3)cc2C)c1` [Compound J252, (Z)-1-(3-(2-Isopropyl-5-methoxyphenyl)-4-oxothiazolidin-2-ylidene)-3-(2-methyl-4-(1-(5-(trifluoromethoxy)pyridin-2-yl)-1H-1,2,4-triazol-3-yl)phenyl)urea], the pest or weed control at 50 µg/cm2 in assay [1] and in assay [2] was 50 to 100% each time.
On to `CC(C)c1ccc(N(C)C)cc1N1C(=O)CS/C1=N\C(=O)Nc1ccc(-c2ncn(-c3ccc(OC(F)(F)F)cn3)n2)cc1Cl` [Compound J253, (Z)-1-(2-Chloro-4-(1-(5-(trifluoromethoxy)pyridin-2-yl)-1H-1,2,4-triazol-3-yl)phenyl)-3-(3-(5-(dimethylamino)-2-isopropylphenyl)-4-oxothiazolidin-2-ylidene)urea], for which the pest or weed control at 50 µg/cm2 in assay [1] and in assay [2] was 50 to 100% in each case.
As for `CCCc1ccc(N(C)C)cc1N1C(=O)CS/C1=N\C(=O)Nc1ccc(-c2ncn(-c3ccc(OC(F)(F)F)cn3)n2)cc1C` [Compound J254, (Z)-1-(3-(5-(Dimethylamino)-2-propylphenyl)-4-oxothiazolidin-2-ylidene)-3-(2-methyl-4-(1-(5-(trifluoromethoxy)pyridin-2-yl)-1H-1,2,4-triazol-3-yl)phenyl)urea], the pest or weed control at 50 µg/cm2 in assay [1] and in assay [2] was 50 to 100% each time.
In the case of `Cc1ccc(OCCC(F)(F)F)c(N2C(=O)CS/C2=N\C(=O)Nc2ccc(-c3ncn(-c4ccc(OC(F)(F)F)cn4)n3)cc2C)c1` [Compound J255, (Z)-1-(3-(5-Methyl-2-(3,3,3-trifluoropropoxy)phenyl)-4-oxothiazolidin-2-ylidene)-3-(2-methyl-4-(1-(5-(trifluoromethoxy)pyridin-2-yl)-1H-1,2,4-triazol-3-yl)phenyl)urea], the pest or weed control at 50 µg/cm2 in assay [1] and in assay [2] was 50 to 100% in each case.
On to `Cc1ccc(OCCC(F)(F)F)c(N2C(=O)CS/C2=N\C(=O)Nc2ccc(-c3ncn(-c4ccc(OC(F)(F)F)cn4)n3)cc2F)c1` [Compound J257, (Z)-1-(2-Fluoro-4-(1-(5-(trifluoromethoxy)pyridin-2-yl)-1H-1,2,4-triazol-3-yl)phenyl)-3-(3-(5-methyl-2-(3,3,3-trifluoropropoxy)phenyl)-4-oxothiazolidin-2-ylidene)urea], for which the pest or weed control at 50 µg/cm2 in assay [1] and in assay [2] was 50 to 100% each time.
Regarding `CCCc1ccc(N(C)C)cc1N1C(=O)CS/C1=N\C(=O)Nc1ccc(-c2ncn(-c3ccc(OC(F)(F)F)cn3)n2)cc1F` [Compound J258, (Z)-1-(3-(5-(Dimethylamino)-2-propylphenyl)-4-oxothiazolidin-2-ylidene)-3-(2-fluoro-4-(1-(5-(trifluoromethoxy)pyridin-2-yl)-1H-1,2,4-triazol-3-yl)phenyl)urea], the pest or weed control at 50 µg/cm2 in assay [1] and in assay [2] was 50 to 100% each time.
As to `Cc1ccc(C(C)C)c(N2C(=O)CS/C2=N\C(=O)Nc2ccc(-c3ncn(-c4ccc(OC(F)(F)F)cn4)n3)cc2C#N)c1` [Compound J259, (Z)-1-(2-Cyano-4-(1-(5-(trifluoromethoxy)pyridin-2-yl)-1H-1,2,4-triazol-3-yl)phenyl)-3-(3-(2-isopropyl-5-methylphenyl)-4-oxothiazolidin-2-ylidene)urea], the pest or weed control at 50 µg/cm2 in assay [1] and in assay [2] was 50 to 100% throughout.
